Columns and labels:
[1] = Freeze-thaw stability in spiked pooled human plasma; assay type: physicochemical
[2] = Autosampler stability of ready for injection samples; assay type: physicochemical, human
[3] = parameters: method as in supplement references [1-55] as printed per drug; details: minimum steady-state blood plasma concentration after multiple dose administration; ref supplement references [1-55] per drug; cited from earlier work
[4] = Long-term stability in spiked pooled human plasma
[5] = Short-term stability in spiked pooled human plasma (bench-top, 4 °C, 56 °C)

Which “Freeze-Thaw Accuracy [%]” value ([1]; validation standard 2xLLOV) does the source give for `Nc1cccc2c1C(=O)N(C1CCC(=O)NC1=O)C2=O` (stereo not drawn) [Pomalidomide] here?
The value was 90.9%.

And the “Freeze-Thaw Accuracy [%]” value ([1]; validation standard LLOV)?
The value was 74.4%.

And the “Freeze-Thaw Accuracy [%]” value ([1]; validation standard MOV)?
The value was 90.1%.

What about the “Freeze-Thaw Accuracy [%]” value ([1]; validation standard ULOV) of the same compound?
Its value is 92.4%.

What about the “Autosampler (24h, 4°C) Accuracy [%]” value ([2]; validation standard 2xLLOV) of the same compound?
Its value is 104.1%.

What about the “Autosampler (72h, 4°C) Accuracy [%]” value ([2]; validation standard 2xLLOV) of the same compound?
Its value is 103.5%.

What about the “Autosampler (24h, 4°C) Accuracy [%]” value ([2]; validation standard LLOV) of the same compound?
Its value is 104.9%.

What about the “Autosampler (72h, 4°C) Accuracy [%]” value ([2]; validation standard LLOV) of the same compound?
Its value is 96.5%.

And the “Autosampler (24h, 4°C) Accuracy [%]” value ([2]; validation standard MOV)?
Its value is 104.5%.

And the “Autosampler (72h, 4°C) Accuracy [%]” value ([2]; validation standard MOV)?
The value was 97.7%.

And the “Autosampler (24h, 4°C) Accuracy [%]” value ([2]; validation standard ULOV)?
Its value is 100.5%.

What about the “Autosampler (72h, 4°C) Accuracy [%]” value ([2]; validation standard ULOV) of the same compound?
Its value is 97.9%.

What about the “cmin” value [3] of the same compound?
The value was 10.9 ng/mL.

And the “Long-term stability, 1 month, -20°C Accuracy [%]” value ([4]; validation standard 2xLLOV)?
The value was 90.4%.

What about the “Long-term stability, 1 month, -80°C Accuracy [%]” value ([4]; validation standard 2xLLOV) of the same compound?
Its value is 90.2%.

What about the “Long-term stability, 2 month, -20°C Accuracy [%]” value ([4]; validation standard 2xLLOV) of the same compound?
The value was 107.3%.

And the “Long-term stability, 2 month, -80°C Accuracy [%]” value ([4]; validation standard 2xLLOV)?
The value was 96.6%.

What about the “Long-term stability, 3 month, -20°C Accuracy [%]” value ([4]; validation standard 2xLLOV) of the same compound?
The value was 95.5%.

And the “Long-term stability, 3 month, -80°C Accuracy [%]” value ([4]; validation standard 2xLLOV)?
Its value is 97.4%.

What about the “Long-term stability, 6 weeks, 4°C, without daylight Accuracy [%]” value ([4]; validation standard 2xLLOV) of the same compound?
Its value is 19.0%.

What about the “Long-term stability, 1 month, -20°C Accuracy [%]” value ([4]; validation standard LLOV) of the same compound?
The value was 91.3%.

And the “Long-term stability, 1 month, -80°C Accuracy [%]” value ([4]; validation standard LLOV)?
The value was 85.8%.

And the “Long-term stability, 2 month, -20°C Accuracy [%]” value ([4]; validation standard LLOV)?
The value was 95.9%.

And the “Long-term stability, 2 month, -80°C Accuracy [%]” value ([4]; validation standard LLOV)?
Its value is 99.9%.

What about the “Long-term stability, 3 month, -20°C Accuracy [%]” value ([4]; validation standard LLOV) of the same compound?
The value was 97.6%.

What about the “Long-term stability, 3 month, -80°C Accuracy [%]” value ([4]; validation standard LLOV) of the same compound?
The value was 97.4%.

And the “Long-term stability, 6 weeks, 4°C, without daylight Accuracy [%]” value ([4]; validation standard LLOV)?
The value was 30.1%.

And the “Long-term stability, 1 month, -20°C Accuracy [%]” value ([4]; validation standard MOV)?
The value was 90.6%.

And the “Long-term stability, 1 month, -80°C Accuracy [%]” value ([4]; validation standard MOV)?
The value was 88.3%.

And the “Long-term stability, 2 month, -20°C Accuracy [%]” value ([4]; validation standard MOV)?
The value was 97.2%.

What about the “Long-term stability, 2 month, -80°C Accuracy [%]” value ([4]; validation standard MOV) of the same compound?
Its value is 99.4%.

And the “Long-term stability, 3 month, -20°C Accuracy [%]” value ([4]; validation standard MOV)?
The value was 90.0%.

And the “Long-term stability, 3 month, -80°C Accuracy [%]” value ([4]; validation standard MOV)?
Its value is 94.9%.

And the “Long-term stability, 6 weeks, 4°C, without daylight Accuracy [%]” value ([4]; validation standard MOV)?
The value was 15.7%.

And the “Long-term stability, 1 month, -20°C Accuracy [%]” value ([4]; validation standard ULOV)?
The value was 94.6%.

And the “Long-term stability, 1 month, -80°C Accuracy [%]” value ([4]; validation standard ULOV)?
The value was 89.1%.

What about the “Long-term stability, 2 month, -20°C Accuracy [%]” value ([4]; validation standard ULOV) of the same compound?
The value was 94.1%.

What about the “Long-term stability, 2 month, -80°C Accuracy [%]” value ([4]; validation standard ULOV) of the same compound?
Its value is 99.0%.

What about the “Long-term stability, 3 month, -20°C Accuracy [%]” value ([4]; validation standard ULOV) of the same compound?
Its value is 87.6%.

What about the “Long-term stability, 3 month, -80°C Accuracy [%]” value ([4]; validation standard ULOV) of the same compound?
Its value is 95.1%.

What about the “Long-term stability, 6 weeks, 4°C, without daylight Accuracy [%]” value ([4]; validation standard ULOV) of the same compound?
Its value is 11.3%.

And the “Short-time stability (1h, 56°C) Accuracy [%]” value ([5]; validation standard 2xLLOV)?
Its value is 21.3%.

And the “Short-time stability (24h, 4°C, without daylight) Accuracy [%]” value ([5]; validation standard 2xLLOV)?
The value was 94.1%.

And the “Short-time stability (24h, RT, with daylight) Accuracy [%]” value ([5]; validation standard 2xLLOV)?
The value was 51.2%.

What about the “Short-time stability (24h, RT, without daylight) Accuracy [%]” value ([5]; validation standard 2xLLOV) of the same compound?
The value was 51.3%.

And the “Short-time stability (1h, 56°C) Accuracy [%]” value ([5]; validation standard LLOV)?
The value was 38.4%.

And the “Short-time stability (24h, 4°C, without daylight) Accuracy [%]” value ([5]; validation standard LLOV)?
The value was 92.5%.

And the “Short-time stability (24h, RT, with daylight) Accuracy [%]” value ([5]; validation standard LLOV)?
Its value is 42.4%.

What about the “Short-time stability (24h, RT, without daylight) Accuracy [%]” value ([5]; validation standard LLOV) of the same compound?
Its value is 42.6%.

What about the “Short-time stability (1h, 56°C) Accuracy [%]” value ([5]; validation standard MOV) of the same compound?
The value was 20.6%.

And the “Short-time stability (24h, 4°C, without daylight) Accuracy [%]” value ([5]; validation standard MOV)?
The value was 96.7%.

What about the “Short-time stability (24h, RT, with daylight) Accuracy [%]” value ([5]; validation standard MOV) of the same compound?
Its value is 51.3%.

What about the “Short-time stability (24h, RT, without daylight) Accuracy [%]” value ([5]; validation standard MOV) of the same compound?
Its value is 51.2%.

What about the “Short-time stability (1h, 56°C) Accuracy [%]” value ([5]; validation standard ULOV) of the same compound?
Its value is 16.9%.

What about the “Short-time stability (24h, 4°C, without daylight) Accuracy [%]” value ([5]; validation standard ULOV) of the same compound?
The value was 88.6%.

And the “Short-time stability (24h, RT, with daylight) Accuracy [%]” value ([5]; validation standard ULOV)?
Its value is 43.6%.

And the “Short-time stability (24h, RT, without daylight) Accuracy [%]” value ([5]; validation standard ULOV)?
Its value is 43.8%.

Which results are given for `CS(=O)(=O)c1ccc(C(=O)Nc2ccc(Cl)c(-c3ccccn3)c2)c(Cl)c1` [Vismodegib]?
Freeze-Thaw Accuracy [%] ([1]; validation standard 2xLLOV): 103.4%; Freeze-Thaw Accuracy [%] ([1]; validation standard LLOV): 77.6%; Freeze-Thaw Accuracy [%] ([1]; validation standard MOV): 103.2%; Freeze-Thaw Accuracy [%] ([1]; validation standard ULOV): 94.1%; Autosampler (24h, 4°C) Accuracy [%] ([2]; validation standard 2xLLOV): 105.1%; Autosampler (72h, 4°C) Accuracy [%] ([2]; validation standard 2xLLOV): 109.2%; Autosampler (24h, 4°C) Accuracy [%] ([2]; validation standard LLOV): 84.9%; Autosampler (72h, 4°C) Accuracy [%] ([2]; validation standard LLOV): 85.6%; Autosampler (24h, 4°C) Accuracy [%] ([2]; validation standard MOV): 108.4%; Autosampler (72h, 4°C) Accuracy [%] ([2]; validation standard MOV): 107.5%; Autosampler (24h, 4°C) Accuracy [%] ([2]; validation standard ULOV): 96.6%; Autosampler (72h, 4°C) Accuracy [%] ([2]; validation standard ULOV): 99.7%; cmin [3]: 11367 ng/mL; Long-term stability, 1 month, -20°C Accuracy [%] ([4]; validation standard 2xLLOV): 105.4%; Long-term stability, 1 month, -80°C Accuracy [%] ([4]; validation standard 2xLLOV): 99.5%; Long-term stability, 2 month, -20°C Accuracy [%] ([4]; validation standard 2xLLOV): 106.5%; Long-term stability, 2 month, -80°C Accuracy [%] ([4]; validation standard 2xLLOV): 104.3%; Long-term stability, 3 month, -20°C Accuracy [%] ([4]; validation standard 2xLLOV): 100.1%; Long-term stability, 3 month, -80°C Accuracy [%] ([4]; validation standard 2xLLOV): 99.6%; Long-term stability, 6 weeks, 4°C, without daylight Accuracy [%] ([4]; validation standard 2xLLOV): 107.5%; Long-term stability, 1 month, -20°C Accuracy [%] ([4]; validation standard LLOV): 92.5%; Long-term stability, 1 month, -80°C Accuracy [%] ([4]; validation standard LLOV): 88.6%; Long-term stability, 2 month, -20°C Accuracy [%] ([4]; validation standard LLOV): 94.1%; Long-term stability, 2 month, -80°C Accuracy [%] ([4]; validation standard LLOV): 96.9%; Long-term stability, 3 month, -20°C Accuracy [%] ([4]; validation standard LLOV): 84.3%; Long-term stability, 3 month, -80°C Accuracy [%] ([4]; validation standard LLOV): 84.4%; Long-term stability, 6 weeks, 4°C, without daylight Accuracy [%] ([4]; validation standard LLOV): 96.6%; Long-term stability, 1 month, -20°C Accuracy [%] ([4]; validation standard MOV): 97.8%; Long-term stability, 1 month, -80°C Accuracy [%] ([4]; validation standard MOV): 97.9%; Long-term stability, 2 month, -20°C Accuracy [%] ([4]; validation standard MOV): 103.0%; Long-term stability, 2 month, -80°C Accuracy [%] ([4]; validation standard MOV): 103.7%; Long-term stability, 3 month, -20°C Accuracy [%] ([4]; validation standard MOV): 101.3%; Long-term stability, 3 month, -80°C Accuracy [%] ([4]; validation standard MOV): 100.9%; Long-term stability, 6 weeks, 4°C, without daylight Accuracy [%] ([4]; validation standard MOV): 109.8%; Long-term stability, 1 month, -20°C Accuracy [%] ([4]; validation standard ULOV): 90.5%; Long-term stability, 1 month, -80°C Accuracy [%] ([4]; validation standard ULOV): 87.8%; Long-term stability, 2 month, -20°C Accuracy [%] ([4]; validation standard ULOV): 94.5%; Long-term stability, 2 month, -80°C Accuracy [%] ([4]; validation standard ULOV): 95.1%; Long-term stability, 3 month, -20°C Accuracy [%] ([4]; validation standard ULOV): 94.9%; Long-term stability, 3 month, -80°C Accuracy [%] ([4]; validation standard ULOV): 93.4%; Long-term stability, 6 weeks, 4°C, without daylight Accuracy [%] ([4]; validation standard ULOV): 96.5%; Short-time stability (1h, 56°C) Accuracy [%] ([5]; validation standard 2xLLOV): 63.8%; Short-time stability (24h, 4°C, without daylight) Accuracy [%] ([5]; validation standard 2xLLOV): 105.0%; Short-time stability (24h, RT, with daylight) Accuracy [%] ([5]; validation standard 2xLLOV): 114.6%; Short-time stability (24h, RT, without daylight) Accuracy [%] ([5]; validation standard 2xLLOV): 117.6%; Short-time stability (1h, 56°C) Accuracy [%] ([5]; validation standard LLOV): 34.2%; Short-time stability (24h, 4°C, without daylight) Accuracy [%] ([5]; validation standard LLOV): 87.2%; Short-time stability (24h, RT, with daylight) Accuracy [%] ([5]; validation standard LLOV): 96.1%; Short-time stability (24h, RT, without daylight) Accuracy [%] ([5]; validation standard LLOV): 99.6%; Short-time stability (1h, 56°C) Accuracy [%] ([5]; validation standard MOV): 65.7%; Short-time stability (24h, 4°C, without daylight) Accuracy [%] ([5]; validation standard MOV): 105.3%; Short-time stability (24h, RT, with daylight) Accuracy [%] ([5]; validation standard MOV): 111.1%; Short-time stability (24h, RT, without daylight) Accuracy [%] ([5]; validation standard MOV): 114.6%; Short-time stability (1h, 56°C) Accuracy [%] ([5]; validation standard ULOV): 54.4%; Short-time stability (24h, 4°C, without daylight) Accuracy [%] ([5]; validation standard ULOV): 94.5%; Short-time stability (24h, RT, with daylight) Accuracy [%] ([5]; validation standard ULOV): 103.5%; Short-time stability (24h, RT, without daylight) Accuracy [%] ([5]; validation standard ULOV): 104.5%

Reference: PMC8699473, “An Easily Expandable Multi-Drug LC-MS Assay for the Simultaneous Quantification of 57 Oral Antitumor Drugs in Human Plasma” (Cancers, 2021)
